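48-hour exposure; five concentrations; linearly interpolated endpoints. GI50 is the concentration that inhibits growth by half. TGI denotes the concentration required for complete inhibition of growth.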
Experiments:
Experiment in all cases: inhibition of tumour cell growth, NCI panel, 48 h
ACHN renal = system: ACHN renal
NCI-H226 lung = system: NCI-H226 lung
HCC-2998 colon = system: HCC-2998 colon
OVCAR-8 ovarian = system: OVCAR-8 ovarian
RPMI-8226 leukemia = system: RPMI-8226 leukemia
U251 CNS = system: U251 CNS
HCT-15 colon = system: HCT-15 colon
HL-60(TB) leukemia = system: HL-60(TB) leukemia
BT-549 breast = system: BT-549 breast
SNB-19 CNS = system: SNB-19 CNS
HT29 colon = system: HT29 colon
NCI-H23 lung = system: NCI-H23 lung
NCI-H522 lung = system: NCI-H522 lung
TK-10 renal = system: TK-10 renal
A498 renal = system: A498 renal
M14 melanoma = system: M14 melanoma
SK-MEL-5 melanoma = system: SK-MEL-5 melanoma
HOP-62 NSCLC = system: HOP-62 NSCLC
SN12C renal = system: SN12C renal
SK-MEL-28 melanoma = system: SK-MEL-28 melanoma
LOX IMVI melanoma = system: LOX IMVI melanoma
MDA-MB-435 = system: MDA-MB-435
KM12 colon = system: KM12 colon
SK-MEL-2 melanoma = system: SK-MEL-2 melanoma
MDA-MB-231 breast = system: MDA-MB-231 breast
SF-295 CNS = system: SF-295 CNS
EKVX NSCLC = system: EKVX NSCLC
NCI-H460 lung = system: NCI-H460 lung
IGROV1 ovarian = system: IGROV1 ovarian
PC-3 prostate = system: PC-3 prostate
UACC-62 melanoma = system: UACC-62 melanoma
SR leukemia = system: SR leukemia
MOLT-4 leukemia = system: MOLT-4 leukemia
SF-268 CNS = system: SF-268 CNS
T-47D breast = system: T-47D breast
OVCAR-4 ovarian = system: OVCAR-4 ovarian
K-562 leukemia = system: K-562 leukemia
SNB-75 CNS = system: SNB-75 CNS
COLO 205 colon = system: COLO 205 colon
UO-31 renal = system: UO-31 renal
OVCAR-5 ovarian = system: OVCAR-5 ovarian
786-0 renal = system: 786-0 renal
CCRF-CEM leukemia = system: CCRF-CEM leukemia
HCT-116 colon = system: HCT-116 colon
MCF7 breast = system: MCF7 breast
HOP-92 NSCLC = system: HOP-92 NSCLC
SW-620 colon = system: SW-620 colon
HS 578T breast = system: HS 578T breast
A549 NSCLC = system: A549 NSCLC
UACC-257 melanoma = system: UACC-257 melanoma
DU-145 prostate = system: DU-145 prostate
NCI/ADR-RES ovarian = system: NCI/ADR-RES ovarian
SF-539 CNS = system: SF-539 CNS

Structure (SMILES): C=CCNc1cccc2c1C(=O)c1ccccc1C2(O)CC=C (stereo unspecified)
- GI50 (ACHN renal): 28.5 µM
- TGI (ACHN renal): 65.3 µM
- GI50 (NCI-H226 lung): 20.2 µM
- TGI (NCI-H226 lung): 49.2 µM
- GI50 (HCC-2998 colon): 20.1 µM
- TGI (HCC-2998 colon): 37.4 µM
- GI50 (OVCAR-8 ovarian): 19.5 µM
- TGI (OVCAR-8 ovarian): 47.1 µM
- GI50 (RPMI-8226 leukemia): 17.4 µM
- TGI (RPMI-8226 leukemia): 44.6 µM
- GI50 (U251 CNS): 17.4 µM
- TGI (U251 CNS): 39.2 µM
- GI50 (HCT-15 colon): 15.5 µM
- TGI (HCT-15 colon): 57 µM
- GI50 (HL-60(TB) leukemia): 47.2 µM
- TGI (HL-60(TB) leukemia): > 100 µM
- GI50 (BT-549 breast): 19.3 µM
- TGI (BT-549 breast): 42.7 µM
- GI50 (SNB-19 CNS): 18.5 µM
- TGI (SNB-19 CNS): 44.7 µM
- GI50 (HT29 colon): 16.8 µM
- TGI (HT29 colon): 36.7 µM
- GI50 (NCI-H23 lung): 18.2 µM
- TGI (NCI-H23 lung): 45.7 µM
- GI50 (NCI-H522 lung): 18.4 µM
- TGI (NCI-H522 lung): 51.6 µM
- GI50 (TK-10 renal): 25.2 µM
- TGI (TK-10 renal): 57.8 µM
- GI50 (A498 renal): 21.8 µM
- TGI (A498 renal): 47.8 µM
- GI50 (M14 melanoma): 19 µM
- TGI (M14 melanoma): 41 µM
- GI50 (SK-MEL-5 melanoma): 16 µM
- TGI (SK-MEL-5 melanoma): 30.2 µM
- GI50 (HOP-62 NSCLC): 24.2 µM
- TGI (HOP-62 NSCLC): 61.2 µM
- GI50 (SN12C renal): 20.2 µM
- TGI (SN12C renal): 43 µM
- GI50 (SK-MEL-28 melanoma): 27 µM
- TGI (SK-MEL-28 melanoma): 93.3 µM
- GI50 (LOX IMVI melanoma): 18.6 µM
- TGI (LOX IMVI melanoma): 35.9 µM
- GI50 (MDA-MB-435): 24.6 µM
- TGI (MDA-MB-435): 59 µM
- GI50 (KM12 colon): 23.6 µM
- TGI (KM12 colon): 56.9 µM
- GI50 (SK-MEL-2 melanoma): 20.7 µM
- TGI (SK-MEL-2 melanoma): 47.6 µM
- GI50 (MDA-MB-231 breast): 12.3 µM
- TGI (MDA-MB-231 breast): 28.3 µM
- GI50 (SF-295 CNS): 25.7 µM
- TGI (SF-295 CNS): 55 µM
- GI50 (EKVX NSCLC): 31.8 µM
- TGI (EKVX NSCLC): > 100 µM
- GI50 (NCI-H460 lung): 56 µM
- TGI (NCI-H460 lung): > 100 µM
- GI50 (IGROV1 ovarian): 33.3 µM
- TGI (IGROV1 ovarian): > 100 µM
- GI50 (PC-3 prostate): 26.6 µM
- TGI (PC-3 prostate): 73.8 µM
- GI50 (UACC-62 melanoma): 10.6 µM
- TGI (UACC-62 melanoma): 24.4 µM
- GI50 (SR leukemia): 36.8 µM
- TGI (SR leukemia): > 100 µM
- GI50 (MOLT-4 leukemia): 41.8 µM
- TGI (MOLT-4 leukemia): > 100 µM
- GI50 (SF-268 CNS): 62.7 µM
- TGI (SF-268 CNS): > 100 µM
- GI50 (T-47D breast): 32.2 µM
- TGI (T-47D breast): > 100 µM
- GI50 (OVCAR-4 ovarian): 26.2 µM
- TGI (OVCAR-4 ovarian): > 100 µM
- GI50 (K-562 leukemia): 31.1 µM
- TGI (K-562 leukemia): 95.2 µM
- GI50 (SNB-75 CNS): 17 µM
- TGI (SNB-75 CNS): 45.7 µM
- GI50 (COLO 205 colon): 16.2 µM
- TGI (COLO 205 colon): 36.1 µM
- GI50 (UO-31 renal): 27.7 µM
- TGI (UO-31 renal): > 100 µM
- GI50 (OVCAR-5 ovarian): 31.5 µM
- TGI (OVCAR-5 ovarian): 67.9 µM
- GI50 (786-0 renal): 19.8 µM
- TGI (786-0 renal): 36.9 µM
- GI50 (CCRF-CEM leukemia): 22.6 µM
- TGI (CCRF-CEM leukemia): 52 µM
- GI50 (HCT-116 colon): 17.7 µM
- TGI (HCT-116 colon): 32.3 µM
- GI50 (MCF7 breast): 66.7 µM
- TGI (MCF7 breast): > 100 µM
- GI50 (HOP-92 NSCLC): 27.4 µM
- TGI (HOP-92 NSCLC): 55.4 µM
- GI50 (SW-620 colon): 22.2 µM
- TGI (SW-620 colon): 55.1 µM
- GI50 (HS 578T breast): 18.8 µM
- TGI (HS 578T breast): 43.5 µM
- GI50 (A549 NSCLC): 23.7 µM
- TGI (A549 NSCLC): 69 µM
- GI50 (UACC-257 melanoma): 15 µM
- TGI (UACC-257 melanoma): 39 µM
- GI50 (DU-145 prostate): 24.9 µM
- TGI (DU-145 prostate): 63 µM
- GI50 (NCI/ADR-RES ovarian): 22.4 µM
- TGI (NCI/ADR-RES ovarian): 58.4 µM
- GI50 (SF-539 CNS): 19.5 µM
- TGI (SF-539 CNS): 38.4 µM
